Reference: patent publication US20090227597A1, “PYRAZOLOPYRIMIDINONES AS PHOSPHODIESTERASE INHIBITORS” (CTG PHARMA S.R.L., priority 2004, published 2009)
Counter-ions that a name gives are not always drawn.

Experiments:
PDE5 enzyme = PDE5 enzyme (Homo sapiens, UniProt O76074); assay: in vitro inhibition of cGMP PDE5; type: biochemical
Excerpt: The compounds of the present invention have been tested in vitro and found to be potent and selective inhibitors of cGMP PDE5.

| melting point [°C] | IC50 (PDE5 enzyme) [nM] | SMILES |
| --- | --- | --- |
| 188 to 189 | 6.8 to 7.2 | CCCc1nn(C)c2c(=O)[nH]c(-c3cc(S(=O)(=O)N4CCN(CC(=O)Oc5ccc(-c6cc(=S)ss6)cc5)CC4)ccc3OCC)nc12 [Example 1, sildenafil analog ester with 5-(p-hydroxyphenyl)-3H-1,2-dithiol-3-thione] |
| – | 6.8 to 7.2 | CCCc1nn(C)c2c(=O)[nH]c(-c3cc(S(=O)(=O)N4CCN(CC(=O)N[C@@H](CS)C(=O)O)CC4)ccc3OCC)nc12 [Example 2, sildenafil analog amide with cysteine] |
| 166 to 168 | – | CCCc1nn(C)c2c(=O)[nH]c(-c3cc(S(=O)(=O)N4CCN(CC(=O)N[C@@H](CS)C(=O)O)CC4)ccc3OCC)nc12 (as salt: salt) (hydrate or solvate) [Example 2, sildenafil analog amide with cysteine] |
